Test results published in paper PMC10373102 (Molecular microbiology, 2011).

Target: T1, CtdQ; acylating aldehyde dehydrogenase (ADA) (Acidovorax sp. JS42, UniProt A1W2K2)
T1 sequence (A1W2K2 1-302): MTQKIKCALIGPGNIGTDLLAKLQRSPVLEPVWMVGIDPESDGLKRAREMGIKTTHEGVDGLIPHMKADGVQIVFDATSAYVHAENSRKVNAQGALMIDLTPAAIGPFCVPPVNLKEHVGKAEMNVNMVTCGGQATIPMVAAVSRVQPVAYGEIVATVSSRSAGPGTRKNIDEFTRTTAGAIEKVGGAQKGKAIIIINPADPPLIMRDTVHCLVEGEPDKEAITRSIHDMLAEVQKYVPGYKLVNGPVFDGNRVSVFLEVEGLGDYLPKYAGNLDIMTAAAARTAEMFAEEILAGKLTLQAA
Assay: enzyme assay in extract of E. coli expressing ctdQ
Type: biochemical
Details: details in SI

SMILES | enzyme assay in extract of E. coli expressing ctdQ
CC=O [acetaldehyde] | the enzyme was equally active with acetaldehyde and propionaldehyde
CCC=O [propionaldehyde] | the enzyme was equally active with acetaldehyde and propionaldehyde
